Data taken from US20250161338A1, “Compounds for Anti-aging Intervention” (AGENCY FOR SCIENCE, TECHNOLOGY AND RESEARCH, priority 2022, published 2025).
Structures can show the parent of a compound that is named as a salt.

Legend:
[1] = tested on: prototrophic yeast strain (CEN.PK113-7D); experiment: Yeast outgrowth in YPD liquid medium (CLS of aged cells); assay type: cell-based, Saccharomyces cerevisiae; details: concentration tested 100 μM; OD600 nm after 24 h in YPD at 30° C.; age point day 14
Method: (§1) CLS experiments were performed in 96-well plates with 200 μL yeast culture. Cellular inoculums were transferred into 96-well plates containing serially double-diluted concentrations (0 to 10 nM) of rapamycin. Cellular inoculum was transferred into 96-well plates containing serially double-diluted concentrations (0 to 8 mM) of 2,5-anhydro-D-mannitol, D-fructose, D-mannitol, D-maltose, and D-sorbitol in SD medium. Cells were incubated at 30° C., and the growth was measured at different time points. […] Cell survival was quantified at various age time points by three different approaches: (i) PI fluorescence-based method, (ii) outgrowth in YPD liquid medium, and (iii) spotting assay (FIG. 1).
Outgrowth (OD600) of aged cells was measured by the microplate reader. Quantification of cell survival for each age point was determined as relative to Day 1 (considered 100% cell survival). This quantification was performed by using the formula,
[formula] • where OutgrowthDay n refers to the OD600 nm absorbance reading recorded on a specific day, OutgrowthDay 1 refers to the OD600 nm absorbance reading recorded on the first day where 100% cell survival is assumed.
The CLS of the aged cells was further determined by the yeast outgrowth in YPD liquid medium method as described above. […] At chronological age point day 14, 3-μL of culture were transferred to a second 96-well plate containing 200 μL YPD medium.

[2] = tested on: prototrophic yeast strain (CEN.PK113-7D); experiment: Propidium iodide fluorescence-based CLS method in yeast (incl. high-throughput screening); assay type: cell-based, Saccharomyces cerevisiae; details: concentration tested 100 μM; for Yeast CLS increase: Yes/No call of the screen; for PI intensity: solvent DMSO or water, chronological age point Day 7 (72 h growth = Day 1), lower = more survival;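 on PI intensity: untreated reference is eight DMSO and water control wells per plate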
Method: Yeast strain was recovered from frozen glycerol stock at 30° C. on YPD agar medium. Yeast was left to propagate in SD medium overnight at 30° C. with shaking at 220 revolutions per minute (rpm). Cells propagated overnight were diluted to a starting optical density at 600 nm (OD600) of approximately 0.2 in fresh SD medium to begin the chronological lifespan (CLS) experiments.
as §1
Yeast cells (40 μL) from different age time points were transferred into a second 96-well plate (different to the 96-well plate in which the CLS analysis as outlined above was performed). Cells were washed and incubated in 100 μL 1×phosphate buffered saline (PBS) with propidium iodide (PI) (5 μg/mL) for 15 minutes in the dark. Positive and negative control samples were included for quantitative analysis. Positive control (cells boiled at 100° C. for 15 minutes) was PI-stained and processed in the same 96-well plate. Samples without PI-stained cells served as the negative control. After incubation, cells were washed and resuspended in 100 μL PBS. The fluorescence reading of the samples (excitation and emission wavelengths at 535 nm and 617 nm, respectively) and OD600 were measured with a microplate reader (BioTek, Winooski, Vermont, United States). The fluorescence intensity of each sample was normalized with OD600. The background fluorescence signal of the unstained negative sample was subtracted from the normalized fluorescence intensity of each sample. The obtained fluorescence intensity of the positive control (boiled dead cells) was considered 0% cell survival. Cell death was validated by allowing the boiled dead cells to grow in medium. Cell survival at different age time points of samples were calculated by normalizing the fluorescence intensity with positive control sample (boiled cells).
High-throughput screening of various chemicals was tested using the same protocol for the propidium iodide fluorescence-based method as described above. The prototrophic yeast strain (CEN.PK113-7D) was grown in the synthetic defined medium with different chemical reagents at their respective single testing concentration (Table 1) in addition to eight replicates of DMSO and water controls in 96-well plates at 30° C.

SMILES	Outgrowth [1]	Yeast CLS increase [2]	PI intensity [2]
O=C(O)c1ccc2c(c1)C(=O)c1ccccc1C2=O [Anthraquinone-2-carboxylic acid]	0.1	No	96,099.2
OCC1=C[C@@H](O)[C@@H]2C=CO[C@@H](O[C@@H]3O[C@H](CO)[C@@H](O)[C@H](O)[C@H]3O)[C@H]12 [Aucubin]	0.1	No	58,414.0
NC(=O)[C@@H]1CC[C@@H]2CN1C(=O)N2OS(=O)(=O)O [Avibactam (sodium), reference compound]	0.1	No	73,562.3
O=c1c(O[C@@H]2O[C@H](CO)[C@@H](O)[C@H](O)[C@H]2O[C@@H]2O[C@H](CO)[C@@H](O)[C@H](O)[C@H]2O)c(-c2ccc(O)c(O)c2)oc2cc(O)cc(O)c12 [Baimaside]	0.2	No	61,895.7
CC(=O)OCc1ccccc1 [Benzyl acetate]	0.1	No	74,321.9
C[C@@H](O)[C@H]1C(=O)N2C(C(=O)[O-])=C(SC3Cn4cnc[n+]4C3)[C@H](C)[C@H]12 (stereo partly drawn) [Biapenem, reference compound]	0.1	No	71,409.3
OC(CCN1CCCCC1)(c1ccccc1)C1CC2C=CC1C2 (stereo not drawn) [Biperiden (Hydrochloride), reference compound]	0.2	No	67,178.1
O=[N+]([O-])C(Br)(CO)CO [Bronopol]	0.1	No	79,284.9
C=C1CC[C@H](O)C/C1=C/C=C1\CCC[C@]2(C)[C@@H]([C@H](C)CCCC(C)(C)O)CC[C@@H]12 [Calcifediol, reference compound]	0.2	No	60,747.4
CSCCNc1nc(SCCC(F)(F)F)nc2c1ncn2[C@@H]1O[C@H](COP(=O)([O-])OP(=O)([O-])C(Cl)(Cl)P(=O)([O-])[O-])[C@@H](O)[C@H]1O.[Na+].[Na+].[Na+].[Na+] [Cangrelor (tetrasodium), reference compound]	0.1	No	83,173.6
C[C@]12CCC(=O)C=C1C=C[C@@H]1[C@@H]2CC[C@@]2(C)[C@H]1CC[C@@]21CCC(=O)O1 [Canrenone, reference compound]	0.1	No	64,295.2
CC1=C(C(=O)O)N2C(=O)[C@@H](NC(=O)[C@H](N)c3ccc(O)cc3)[C@H]2SC1 [Cefadroxil, reference compound]	0.1	No	70,326.1
CO/N=C(\C(=O)N[C@@H]1C(=O)N2C(C(=O)O)=C(Cn3ccc(=N)n3CCO)CS[C@H]12)c1csc(N)n1.O=S(=O)(O)O [Cefoselis (sulfate), reference compound]	0.1	No	70,425.6
COCc1c(C(C)C)nc(C(C)C)c(/C=C/[C@@H](O)C[C@@H](O)CC(=O)[O-])c1-c1ccc(F)cc1.[Na+] [Cerivastatin (sodium), reference compound]	0.1	No	64,250.5
O=C(/C=C/c1ccc(O)c(O)c1)O[C@@H]1C[C@](O)(C(=O)O)C[C@@H](O)[C@H]1O [Chlorogenic acid]	0.1	No	66,593.5
CC1(C)C[C@@H]1C(=O)N/C(=C\CCCCSC[C@H](N)C(=O)O)C(=O)O [Cilastatin, reference compound]	0.1	No	55,728.9
O=C(O)C=Cc1ccccc1 [Cinnamic acid]	0.1	No	60,256.3
COc1cc2oc(-c3ccc(O)cc3)cc(=O)c2c(O)c1OC [Cirsimaritin]	0.1	No	85,017.1
O=C(/C=C/c1ccc(O)c(O)c1)O[C@H]1[C@H](O)C[C@](O)(C(=O)O)C[C@H]1O [Cryptochlorogenic acid]	0.1	No	65,040.0
OC[C@H]1O[C@@H](Oc2cc3c(O)cc(O)cc3[o+]c2-c2ccc(O)c(O)c2)[C@H](O)[C@@H](O)[C@H]1O.[Cl-] [Cyanidin-3-O-galactoside (chloride)]	0.1	No	63,761.1
OC[C@H]1O[C@@H](O[C@H]2[C@H](O)[C@@H](O)[C@H](O)O[C@@H]2CO)[C@H](O)[C@@H](O)[C@@H]1O [D-(+)-Cellobiose]	0.1	No	69,857.4
O=C[C@H](O)[C@@H](O)[C@H](O)[C@H](O)C(=O)O [D-Glucuronic acid]	0.1	No	48,839.6
C[C@@H]1CC[C@@]2(OC1)O[C@H]1C[C@H]3[C@@H]4CC=C5C[C@@H](O[C@@H]6O[C@H](CO)[C@@H](O[C@@H]7O[C@H](CO)[C@@H](O)[C@H](O)[C@H]7O)[C@H](O)[C@H]6O[C@@H]6O[C@@H](C)[C@H](O)[C@@H](O)[C@H]6O)CC[C@]5(C)[C@H]4CC[C@]3(C)[C@H]1[C@@H]2C [Deltonin]	0.1	No	62,357.6
O=C(O)Cc1ccccc1Nc1c(Cl)cccc1Cl [Diclofenac (Sodium), reference compound]	0.2	No	79,704.3
CC(=O)OCC(=O)[C@@]1(OC(C)=O)[C@@H](C)C[C@H]2[C@@H]3C[C@H](F)C4=CC(=O)C=C[C@]4(C)[C@@]3(F)[C@@H](O)C[C@@]21C [Diflorasone, reference compound]	0.1	No	71,051.3
COS(=O)(=O)[O-].C[N+]1(C)CCC(=C(c2ccccc2)c2ccccc2)CC1 [Diphenmanil (methylsulfate), reference compound]	0.1	No	78,623.4
CC1(C)[C@@H](O[C@H]2O[C@H](C(=O)[O-])[C@@H](O)[C@H](O)[C@H]2O[C@@H]2O[C@H](C(=O)[O-])[C@@H](O)[C@H](O)[C@H]2O)CC[C@]2(C)[C@H]3C(=O)C=C4[C@@H]5C[C@@](C)(C(=O)O)CC[C@]5(C)CC[C@@]4(C)[C@]3(C)CC[C@@H]12.[K+].[K+] [Dipotassium glycyrrhizinate]	0.1	No	68,519.8
C[C@@H](O)[C@H]1C(=O)N2C(C(=O)O)=C(S[C@@H]3CN[C@H](CNS(N)(=O)=O)C3)[C@H](C)[C@H]12 [Doripenem (monohydrate), reference compound]	0.1	No	69,608.7
CC[C@H]1CN2CCc3cc(OC)c(OC)cc3[C@@H]2C[C@@H]1C[C@H]1NCCc2cc(OC)c(OC)cc21 [Emetine (dihydrochloride hydrate), reference compound]	0.1	No	75,341.5
